Measurements from patent US4169096A, “Antibiotic compounds” (priority 1977, dated 1979).
≈ marks a conversion by molar mass, not a printed value.

Experiments:
B. fragilis A20928-1 = experiment: Inoculum size effect on MIC, GAM agar; assay type: cell-based; conditions: Bacteroides fragilis, A209281; inoculum size 1.2 × 10^6 cell/ml
[1] = test system: Staphylococcus aureus #52-34; experiment: MIC, serial two-fold agar dilution, aerobic bacteria; assay type: cell-based
[2] = test system: Veillonella parvula ATCC 17745; experiment: microbe, parasite or virus in culture; conditions: ATCC17745
C. perfringens A9635 = experiment: animal or person; assay type: in vivo, mice
[3] = test system: Staphylococcus aereus Smith; experiment: MIC, serial two-fold agar dilution, aerobic bacteria; assay type: cell-based
[4] = test system: Diplococcus pneumoniae A9585; experiment: as above; assay type: cell-based; conditions: Streptococcus pneumoniae, GC medium (Eiken)
[5] = test system: Serratia marcescens A20019; experiment: as above; assay type: cell-based; conditions: Nutrient agar (Eiken), read-out: MIC
[6] = test system: Escherichia coli K-12 A9632; experiment: as above; conditions: K12A9632
[7] = test system: Klebsiella pneumoniae A9678; experiment: as above; assay type: cell-based; conditions: Nutrient agar (Eiken), read-out: MIC

For `COC(=O)C1C(C)OC2(C)CC(=O)C3OC12OC(C(C)/C=C(C)/C=C/C(=O)C1=C(O)CN(C)C1=O)C3C` (stereo not shown) [Bu-2313A], the MIC (B. fragilis A20928-1) was 0.1 µg/mL (≈ 0.193 µM), the MIC [1] was 12.5 µg/mL (≈ 24.2 µM) and the MIC [2] was 0.2 µg/mL (≈ 0.386 µM). It also gave an LD50 (in vivo; ip, LD50, ip) of 14 mg/kg, an LD50 (in vivo; po, LD50, po) of 90 mg/kg and an LD50 (in vivo; sc, LD50, sc) of 90 mg/kg. The ED50 (C. perfringens A9635; Clostridium perfringens, A9635, in Mus musculus, sc, 120 h, read-out: PD50) was 6.25 mg/kg, the PD50 (C. perfringens A9635; po, just before challenge, determined after 5 days, NA: no activity) was “NA at 50” and the MIC [3] was 12.5 µg/mL (≈ 24.2 µM). For the same molecule, the MIC [4] was 0.8 µg/mL (≈ 1.55 µM), the MIC [5] was over 100 µg/mL and the MIC [6] was over 100 µg/mL. It also gave an MIC [7] of over 100 µg/mL.
